Laboratory results from patent US20200030355A1, “COMBINATION THERAPY FOR TREATING CANCER” (Epizyme, Inc., priority 2014, published 2020).

Key:
OCI-AML-4 (MLL-ENL) = experiment: EPZ-5676 7-day pre-treatment, then second compound 72 hours, growth inhibition GI100 shift; primary screen and retest (Example 7); assay type: cell-based; details: 300 nM EPZ-5676 7-day pre-treatment, second compound 72 hours; for Combination with EPZ-5676, OCI-AML-4 (MLL-ENL) Retest: Cell Titer Glo; for Combination with EPZ-5676, OCI-AML-4 (MLL-ENL) Primary screen: ATPLite
Experimental: (§1) Cells were then equilibrated in incubators for 24 hours before treatment with a second compound. Treated assay plates were incubated with a second compound for 72 hours. After this time, plates were developed for endpoint analysis using ATPLite to measure ATP content, which is used as an indicator of cell viability.
(§2) Cells were then treated with a second compound for 72 hours. After this time, plates were developed for endpoint analysis using Cell Titer Glo to measure ATP content, which is used as an indicator of cell viability.
(§3) “N/D” means the GI100 of the second compound could not be determined for both conditions and “-” means not tested.
(§4) Growth Inhibition (GI) as a measure of cell viability: The cell viability of vehicle was measured at the time of dosing the second agent (T0) and after seventy-two hours (T72). […] A GI 200% represents complete death of all cells in the culture well. Compounds reaching an activity plateau of GI 200% are considered cytotoxic. GI is calculated by applying the following test and equation: […]
(§5) where T is the signal measure for a test article, V is the vehicle-treated control measure, and V0 is the vehicle control measure at time zero.

SKM-1 (non-MLLr) = experiment: as above; assay type: cell-based, human; details: 300 nM EPZ-5676 7-day pre-treatment; for Combination with EPZ-5676, SKM-1 (non-MLLr) Retest: Cell Titer Glo; for Combination with EPZ-5676, SKM-1 (non-MLLr) Primary screen: ATPLite
Experimental: as §1, §2, §3, §4, §5

MOLM-13 cells = experiment: EPZ-5676 300 nM 7-day pre-treatment, then second compound 72 hours, ATPLite, IC50 shift (Example 6); assay type: cell-based, human; details: 300 nM EPZ-5676 or DMSO 7-day pre-treatment, then 2nd compound 72 hours, Synergy = IC50 of 2nd compound decreased by 2-fold or more vs DMSO control
Experimental: as §1
(§6) “N/D” means that IC50 of the second compound could not be determined for both conditions.

SKM-1 cells = experiment: as above; assay type: cell-based, human; details: SKM-1 cells; 300 nM EPZ-5676 or DMSO 7-day pre-treatment, then 2nd compound 72 hours, ATPLite; Synergy = IC50 of 2nd compound decreased by 2-fold or more vs DMSO control
Experimental: as §1, §6

MOLM-13 (MLL-AF9) = experiment: EPZ-5676 7-day pre-treatment, then second compound 72 hours, growth inhibition GI100 shift; primary screen and retest (Example 7); assay type: cell-based, human; details: second compound 72 hours; for Combination with EPZ-5676, MOLM-13 (MLL-AF9) Retest: 150 nM EPZ-5676 7-day pre-treatment, Cell Titer Glo; for Combination with EPZ-5676, MOLM-13 (MLL-AF9) Primary screen: 300 nM EPZ-5676 7-day pre-treatment, ATPLite
Experimental: as §1, §2, §3, §4, §5

Compound	Combination with EPZ-5676, OCI-AML-4 (MLL-ENL) Retest (OCI-AML-4 (MLL-ENL))	Combination with EPZ-5676, SKM-1 (non-MLLr) Retest (SKM-1 (non-MLLr))	MOLM-13 (summary of combination study: EPZ-5676 + 2nd compound) (MOLM-13 cells)	SKM-1 (summary of combination study: EPZ-5676 + 2nd compound) (SKM-1 cells)	Combination with EPZ-5676, OCI-AML-4 (MLL-ENL) Primary screen (OCI-AML-4 (MLL-ENL))	Combination with EPZ-5676, SKM-1 (non-MLLr) Primary screen (SKM-1 (non-MLLr))	Combination with EPZ-5676, MOLM-13 (MLL-AF9) Retest (MOLM-13 (MLL-AF9))	Combination with EPZ-5676, MOLM-13 (MLL-AF9) Primary screen (MOLM-13 (MLL-AF9))
Cn1nccc1Nc1nccc(-c2ccn([C@H](CO)c3ccc(Cl)c(F)c3)c(=O)c2)n1 [GDC0994]	Synergy (considered synergistic if the GI100 (Growth inhibition 100) value of the second compound decreased by 2-fold or more when EPZ-5676 was added as compared to the DMSO control)	Synergy (considered synergistic if the GI100 (Growth inhibition 100) value of the second compound decreased by 2-fold or more when EPZ-5676 was added as compared to the DMSO control)						
O=C(Nc1ccc2[nH]nc(-c3ccncc3)c2c1)[C@@H]1CCN(CC(=O)N2CCN(c3ccc(-c4ncccn4)cc3)CC2)C1 [SCH772984]	Synergy (considered synergistic if the GI100 (Growth inhibition 100) value of the second compound decreased by 2-fold or more when EPZ-5676 was added as compared to the DMSO control)	Synergy (considered synergistic if the GI100 (Growth inhibition 100) value of the second compound decreased by 2-fold or more when EPZ-5676 was added as compared to the DMSO control)	Synergy (considered synergistic if the IC50 value of the second compound decreased by 2-fold or more when EPZ-5676 was added as compared to the DMSO control)	Synergy (considered synergistic if the IC50 value of the second compound decreased by 2-fold or more when EPZ-5676 was added as compared to the DMSO control)	Synergy (considered synergistic if the GI100 (Growth inhibition 100) value of the second compound decreased by 2-fold or more when EPZ-5676 was added as compared to the DMSO control)	Synergy (considered synergistic if the GI100 (Growth inhibition 100) value of the second compound decreased by 2-fold or more when EPZ-5676 was added as compared to the DMSO control)	Synergy (considered synergistic if the GI100 (Growth inhibition 100) value of the second compound decreased by 2-fold or more when EPZ-5676 was added as compared to the DMSO control)	Synergy (considered synergistic if the GI100 (Growth inhibition 100) value of the second compound decreased by 2-fold or more when EPZ-5676 was added as compared to the DMSO control)
Cn1cnc2c(F)c(Nc3ccc(Br)cc3F)c(C(=O)NOCCO)cc21 [Binimetinib (MEK-162), Binimetinib]	Synergy (considered synergistic if the GI100 (Growth inhibition 100) value of the second compound decreased by 2-fold or more when EPZ-5676 was added as compared to the DMSO control)	Synergy (considered synergistic if the GI100 (Growth inhibition 100) value of the second compound decreased by 2-fold or more when EPZ-5676 was added as compared to the DMSO control)					Synergy (considered synergistic if the GI100 (Growth inhibition 100) value of the second compound decreased by 2-fold or more when EPZ-5676 was added as compared to the DMSO control)	
Cn1cnc2c(F)c(Nc3ccc(Br)cc3Cl)c(C(=O)NOCCO)cc21 [Selumetinib (AZD6244), Selumetinib]	Synergy (considered synergistic if the GI100 (Growth inhibition 100) value of the second compound decreased by 2-fold or more when EPZ-5676 was added as compared to the DMSO control)	Synergy (considered synergistic if the GI100 (Growth inhibition 100) value of the second compound decreased by 2-fold or more when EPZ-5676 was added as compared to the DMSO control)	Synergy (considered synergistic if the IC50 value of the second compound decreased by 2-fold or more when EPZ-5676 was added as compared to the DMSO control)		Synergy (considered synergistic if the GI100 (Growth inhibition 100) value of the second compound decreased by 2-fold or more when EPZ-5676 was added as compared to the DMSO control)	Synergy (considered synergistic if the GI100 (Growth inhibition 100) value of the second compound decreased by 2-fold or more when EPZ-5676 was added as compared to the DMSO control)	Synergy (considered synergistic if the GI100 (Growth inhibition 100) value of the second compound decreased by 2-fold or more when EPZ-5676 was added as compared to the DMSO control)	Synergy (considered synergistic if the GI100 (Growth inhibition 100) value of the second compound decreased by 2-fold or more when EPZ-5676 was added as compared to the DMSO control)
CC(C)Nc1cc(-c2c[nH]c(C(=O)N[C@H](CO)c3cccc(Cl)c3)c2)c(Cl)cn1 [Ulixertinib]	Synergy (considered synergistic if the GI100 (Growth inhibition 100) value of the second compound decreased by 2-fold or more when EPZ-5676 was added as compared to the DMSO control)	Synergy (considered synergistic if the GI100 (Growth inhibition 100) value of the second compound decreased by 2-fold or more when EPZ-5676 was added as compared to the DMSO control)					Synergy (considered synergistic if the GI100 (Growth inhibition 100) value of the second compound decreased by 2-fold or more when EPZ-5676 was added as compared to the DMSO control)	
CNC(=O)c1cc(Oc2ccc(NC(=O)Nc3ccc(Cl)c(C(F)(F)F)c3)cc2)ccn1 [Sorafenib]			Synergy (considered synergistic if the IC50 value of the second compound decreased by 2-fold or more when EPZ-5676 was added as compared to the DMSO control)				Synergy (considered synergistic if the GI100 (Growth inhibition 100) value of the second compound decreased by 2-fold or more when EPZ-5676 was added as compared to the DMSO control)	Synergy (considered synergistic if the GI100 (Growth inhibition 100) value of the second compound decreased by 2-fold or more when EPZ-5676 was added as compared to the DMSO control)
